Reference: the NIST ThermoML archive (doi:10.1021/je101012n)
± gives the expanded uncertainty stated by the source.

Assay: mn = molality of the nth substance listed, in mol/kg
Conditions: 101 kPa, Liquid, Alternating current cell with electrodes

O=S(=O)(O)O [sulfuric acid] + O
electrical conductivity [S/m]
Conditions | 278.15 K | 283.15 K | 298.15 K | 308.15 K | 318.15 K | 343.15 K | 363.15 K
m1 = 9.4e-05 | 0.005493 ± 2.2e-05 | 0.006105 ± 2.4e-05 | 0.007827 ± 3.1e-05 | 0.008931 ± 3.6e-05 | 0.009949 ± 4e-05 | 0.01221 ± 5e-05 | 0.01367 ± 5e-05
m1 = 0.000936 | 0.05201 ± 0.00021 | 0.05749 ± 0.00023 | 0.07292 ± 0.00029 | 0.08174 ± 0.00033 | 0.09001 ± 0.00036 | 0.1026 ± 0.0004 | 0.1058 ± 0.00042
m1 = 0.00944 | 0.4321 ± 0.0017 | 0.4729 ± 0.0019 | 0.5772 ± 0.0023 | 0.6319 ± 0.0025 | 0.6759 ± 0.0027 | 0.7372 ± 0.0029 | 0.7698 ± 0.0031
m1 = 0.09223 | 3.12 ± 0.013 | 3.444 ± 0.014 | 4.13 ± 0.017 | 4.525 ± 0.018 | 4.885 ± 0.019 | 5.575 ± 0.022 | 6.159 ± 0.025
m1 = 0.4664 | 13.46 ± 0.054 | 14.5 ± 0.058 | 17.37 ± 0.07 | 19.34 ± 0.077 | 20.96 ± 0.084 | 25.62 ± 0.1 | 28.05 ± 0.11

[Ba+2].[Cl-].[Cl-] [barium chloride] + O
electrical conductivity [S/m]
Conditions | 278.15 K | 283.15 K | 298.15 K | 308.15 K | 318.15 K | 343.15 K | 363.15 K
m1 = 9.2e-05 | 0.001632 ± 7e-06 | 0.00188 ± 1e-05 | 0.002597 ± 1e-05 | 0.003085 ± 1.2e-05 | 0.003626 ± 1.5e-05 | 0.005187 ± 2.1e-05 | 0.00644 ± 3e-05
m1 = 0.0011 | 0.01799 ± 7e-05 | 0.0206 ± 0.0001 | 0.02897 ± 0.00012 | 0.03508 ± 0.00014 | 0.04141 ± 0.00017 | 0.05911 ± 0.00024 | 0.07372 ± 0.00029
m1 = 0.00896 | 0.1386 ± 0.0006 | 0.1585 ± 0.0006 | 0.2229 ± 0.0009 | 0.2681 ± 0.0011 | 0.3161 ± 0.0013 | 0.4493 ± 0.0018 | 0.5593 ± 0.0022
m1 = 0.1029 | 1.366 ± 0.0055 | 1.553 ± 0.0062 | 2.167 ± 0.0087 | 2.588 ± 0.01 | 3.034 ± 0.012 | 4.247 ± 0.017 | 4.814 ± 0.019
m1 = 0.31 | 3.657 ± 0.015 | 4.127 ± 0.017 | 5.589 ± 0.022 | 6.794 ± 0.027 | 7.859 ± 0.031 | 10.32 ± 0.041 | 12.51 ± 0.05

[Cl-].[Cl-].[Sr+2] [strontium chloride] + O
electrical conductivity [S/m]
Conditions | 278.15 K | 283.15 K | 298.15 K | 308.15 K | 318.15 K | 343.15 K | 363.15 K
m1 = 0.000125 | 0.002084 ± 8e-06 | 0.002384 ± 1e-05 | 0.003331 ± 1.3e-05 | 0.003972 ± 1.6e-05 | 0.004689 ± 1.9e-05 | 0.00678 ± 3e-05 | 0.00842 ± 3e-05
m1 = 0.00141 | 0.02222 ± 9e-05 | 0.02538 ± 0.0001 | 0.03603 ± 0.00014 | 0.04353 ± 0.00017 | 0.05151 ± 0.00021 | 0.07369 ± 0.00029 | 0.09235 ± 0.00037
m1 = 0.012 | 0.1807 ± 0.0007 | 0.2072 ± 0.0008 | 0.2926 ± 0.0012 | 0.3531 ± 0.0014 | 0.4164 ± 0.0017 | 0.5927 ± 0.0024 | 0.7383 ± 0.003
m1 = 0.1313 | 1.663 ± 0.0067 | 1.892 ± 0.0076 | 2.646 ± 0.011 | 3.174 ± 0.013 | 3.719 ± 0.015 | 5.229 ± 0.021 | 6.184 ± 0.025
m1 = 0.3891 | 4.194 ± 0.017 | 4.751 ± 0.019 | 6.457 ± 0.026 | 7.797 ± 0.031 | 9.074 ± 0.036 | 12.51 ± 0.05 | 15.38 ± 0.061

O=S(=O)([O-])[O-].[Ca+2] [calcium sulfate] + O
electrical conductivity [S/m]
Conditions | 278.15 K | 283.15 K | 298.15 K | 308.15 K | 318.15 K | 343.15 K | 363.15 K
m1 = 7.6e-05 | 0.00123 ± 1e-05 | 0.001409 ± 6e-06 | 0.001963 ± 8e-06 | 0.002529 ± 1e-05 | 0.003011 ± 1.2e-05 | 0.004223 ± 1.7e-05 | 0.00536 ± 2e-05
m1 = 0.00102 | 0.01397 ± 6e-05 | 0.01601 ± 6e-05 | 0.02275 ± 9e-05 | 0.02808 ± 0.00011 | 0.0325 ± 0.0001 | 0.04537 ± 0.00018 | 0.05546 ± 0.00022
m1 = 0.01245 | 0.1154 ± 0.0005 | 0.1331 ± 0.0005 | 0.185 ± 0.0007 | 0.2255 ± 0.0009 | 0.2573 ± 0.001 | 0.3419 ± 0.0014 | 0.3973 ± 0.0016

O=S(=O)([O-])[O-].[K+].[K+] [potassium sulfate] + O
electrical conductivity [S/m]
Conditions | 278.15 K | 283.15 K | 298.15 K | 308.15 K | 318.15 K | 343.15 K | 363.15 K
m1 = 0.000102 | 0.001969 ± 8e-06 | 0.002257 ± 9e-06 | 0.003175 ± 1.3e-05 | 0.003884 ± 1.6e-05 | 0.004575 ± 1.8e-05 | 0.006401 ± 2.6e-05 | 0.00794 ± 3e-05
m1 = 0.00105 | 0.01881 ± 8e-05 | 0.02141 ± 9e-05 | 0.03006 ± 0.00012 | 0.03611 ± 0.00014 | 0.04268 ± 0.00017 | 0.06018 ± 0.00024 | 0.07466 ± 0.0003
m1 = 0.01061 | 0.1685 ± 0.0007 | 0.1919 ± 0.0008 | 0.2675 ± 0.0011 | 0.3216 ± 0.0013 | 0.3765 ± 0.0015 | 0.5269 ± 0.0021 | 0.6441 ± 0.0026
m1 = 0.1048 | 1.341 ± 0.0054 | 1.523 ± 0.0061 | 2.11 ± 0.0084 | 2.516 ± 0.01 | 2.94 ± 0.012 | 4.064 ± 0.016 | 4.957 ± 0.02
m1 = 0.2029 | 2.362 ± 0.0094 | 2.672 ± 0.011 | 3.705 ± 0.015 | 4.409 ± 0.018 | 5.138 ± 0.021 | 7.099 ± 0.028 | 8.722 ± 0.035
m1 = 0.4783 | 5.151 ± 0.021 | 5.78 ± 0.023 | 7.801 ± 0.031 | 9.298 ± 0.037 | 10.8 ± 0.043 | 14.91 ± 0.06 | 17.97 ± 0.072

O=[N+]([O-])[O-].O=[N+]([O-])[O-].O=[N+]([O-])[O-].[Fe+3] [ferric nitrate] + O
electrical conductivity [S/m]
Conditions | 278.1 K | 283.1 K | 298.15 K | 308.15 K | 318.15 K | 343.15 K | 363.15 K
m1 = 9.9e-05 | – | – | – | – | – | 9.086 ± 0.036 | 10.27 ± 0.041
m1 = 0.000984 | – | – | – | – | – | 9.106 ± 0.036 | 10.33 ± 0.041
m1 = 0.00985 | – | – | – | – | – | 9.553 ± 0.038 | 10.91 ± 0.044
m1 = 0.09618 | 5.143 ± 0.021 | 5.777 ± 0.023 | 7.576 ± 0.03 | 8.788 ± 0.035 | 10.15 ± 0.041 | 13.85 ± 0.055 | 16.52 ± 0.066
m1 = 0.2534 | 6.656 ± 0.027 | 7.523 ± 0.03 | 9.984 ± 0.04 | 11.83 ± 0.047 | 14.02 ± 0.056 | 20.32 ± 0.081 | –

O=C([O-])O.[Na+] [sodium bicarbonate] + O
electrical conductivity [S/m]
Conditions | 278.15 K | 283.15 K | 298.15 K | 308.15 K | 318.15 K | 343.15 K | 363.15 K
m1 = 0.00121 | 0.006911 ± 2.8e-05 | 0.008034 ± 3.2e-05 | 0.01162 ± 5e-05 | 0.01437 ± 5.7e-05 | 0.01703 ± 7e-05 | 0.02506 ± 0.0001 | 0.03284 ± 0.00013
m1 = 0.01187 | 0.06467 ± 0.00026 | 0.07485 ± 0.0003 | 0.1086 ± 0.0004 | 0.1346 ± 0.0005 | 0.1589 ± 0.0006 | 0.234 ± 0.0009 | 0.3056 ± 0.0012
m1 = 0.1223 | 0.5728 ± 0.0023 | 0.6641 ± 0.0027 | 0.9598 ± 0.0038 | 1.177 ± 0.0047 | 1.395 ± 0.0056 | 2.044 ± 0.0082 | 2.457 ± 0.0098
m1 = 0.7226 | 2.634 ± 0.011 | 3.055 ± 0.012 | 4.383 ± 0.018 | 5.346 ± 0.021 | 6.41 ± 0.026 | 9.404 ± 0.038 | 11.39 ± 0.046

O=S(=O)([O-])[O-].O=S(=O)([O-])[O-].O=S(=O)([O-])[O-].[Fe+3].[Fe+3] [ferric sulfate] + O
electrical conductivity [S/m]
Conditions | 343.15 K | 363.15 K
m1 = 0.000104 | 0.659 ± 0.0026 | 0.6888 ± 0.0028
m1 = 0.000829 | 0.681 ± 0.0027 | 0.718 ± 0.0029

O=[N+]([O-])[O-].O=[N+]([O-])[O-].[Mn+2] [manganese nitrate] + O
electrical conductivity [S/m]
Conditions | 278.1 K | 283.1 K | 298.15 K | 308.15 K | 318.15 K | 343.15 K | 363.15 K
m1 = 0.000917 | 0.05151 ± 0.00021 | 0.05774 ± 0.00023 | 0.07688 ± 0.00031 | 0.08959 ± 0.00036 | 0.1015 ± 0.0004 | 0.1307 ± 0.0005 | 0.155 ± 0.0006
m1 = 0.01047 | 0.1786 ± 0.0007 | 0.2033 ± 0.0008 | 0.282 ± 0.0011 | 0.3382 ± 0.0014 | 0.3934 ± 0.0016 | 0.538 ± 0.0022 | 0.6651 ± 0.0027
m1 = 0.086 | 1.04 ± 0.0042 | 1.179 ± 0.0047 | 1.63 ± 0.0065 | 1.958 ± 0.0078 | 2.295 ± 0.0092 | 3.125 ± 0.013 | 3.692 ± 0.015
m1 = 0.8521 | 7.064 ± 0.028 | 7.973 ± 0.032 | 10.69 ± 0.043 | 12.54 ± 0.05 | 14.41 ± 0.058 | 19.41 ± 0.078 | –
